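Interpolation was linear, between the two tested concentrations surrounding the appropriate level; five concentrations were tested over 48 hours in 96-well plates. GI50 = concentration required for 50% inhibition of growth. TGI: total growth inhibition.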
What was measured:
Assay in all cases: NCI tumour cell line growth inhibition, 48 h
SK-OV-3 ovarian = tested on: SK-OV-3 ovarian
IGROV1 ovarian = tested on: IGROV1 ovarian
MOLT-4 leukemia = tested on: MOLT-4 leukemia
SK-MEL-2 melanoma = tested on: SK-MEL-2 melanoma
RPMI-8226 leukemia = tested on: RPMI-8226 leukemia
A549 NSCLC = tested on: A549 NSCLC
PC-3 prostate = tested on: PC-3 prostate
M14 melanoma = tested on: M14 melanoma
HS 578T breast = tested on: HS 578T breast
OVCAR-5 ovarian = tested on: OVCAR-5 ovarian
DU-145 prostate = tested on: DU-145 prostate
A498 renal = tested on: A498 renal
NCI-H23 lung = tested on: NCI-H23 lung
SNB-75 CNS = tested on: SNB-75 CNS
HCT-116 colon = tested on: HCT-116 colon
SF-539 CNS = tested on: SF-539 CNS
NCI-H226 lung = tested on: NCI-H226 lung
HCT-15 colon = tested on: HCT-15 colon
COLO 205 colon = tested on: COLO 205 colon
MCF7 breast = tested on: MCF7 breast
NCI-H460 lung = tested on: NCI-H460 lung
SF-268 CNS = tested on: SF-268 CNS
ACHN renal = tested on: ACHN renal
SNB-19 CNS = tested on: SNB-19 CNS
RXF 393 renal = tested on: RXF 393 renal
U251 CNS = tested on: U251 CNS
MDA-MB-435 = tested on: MDA-MB-435
TK-10 renal = tested on: TK-10 renal
HOP-92 NSCLC = tested on: HOP-92 NSCLC
UACC-62 melanoma = tested on: UACC-62 melanoma
MALME-3M melanoma = tested on: MALME-3M melanoma
LOX IMVI melanoma = tested on: LOX IMVI melanoma
HOP-62 NSCLC = tested on: HOP-62 NSCLC
SK-MEL-5 melanoma = tested on: SK-MEL-5 melanoma
EKVX NSCLC = tested on: EKVX NSCLC
786-0 renal = tested on: 786-0 renal
UACC-257 melanoma = tested on: UACC-257 melanoma
OVCAR-3 ovarian = tested on: OVCAR-3 ovarian
HCC-2998 colon = tested on: HCC-2998 colon
KM12 colon = tested on: KM12 colon
K-562 leukemia = tested on: K-562 leukemia
NCI-H522 lung = tested on: NCI-H522 lung
HT29 colon = tested on: HT29 colon
SR leukemia = tested on: SR leukemia
T-47D breast = tested on: T-47D breast
MDA-MB-231 breast = tested on: MDA-MB-231 breast
SF-295 CNS = tested on: SF-295 CNS
CCRF-CEM leukemia = tested on: CCRF-CEM leukemia
MDA-MB-468 breast = tested on: MDA-MB-468 breast
OVCAR-8 ovarian = tested on: OVCAR-8 ovarian
BT-549 breast = tested on: BT-549 breast
OVCAR-4 ovarian = tested on: OVCAR-4 ovarian
HL-60(TB) leukemia = tested on: HL-60(TB) leukemia
SW-620 colon = tested on: SW-620 colon
CAKI-1 renal = tested on: CAKI-1 renal
UO-31 renal = tested on: UO-31 renal
SK-MEL-28 melanoma = tested on: SK-MEL-28 melanoma

For `N#C[Se]CC(=O)Nc1cccc(C(F)(F)F)c1`, which GI50 (SK-OV-3 ovarian) is on record?
Its GI50 is 8.34 µM.

What about the TGI (SK-OV-3 ovarian) of the same compound?
The TGI was 31.9 µM.

And the GI50 (IGROV1 ovarian)?
Its GI50 is 1.55 µM.

And the TGI (IGROV1 ovarian)?
The TGI was 3.57 µM.

What about the GI50 (MOLT-4 leukemia) of the same compound?
The GI50 was 3.77 µM.

And the TGI (MOLT-4 leukemia)?
The TGI was 26.2 µM.

And the GI50 (SK-MEL-2 melanoma)?
Its GI50 is 9.03 µM.

What about the TGI (SK-MEL-2 melanoma) of the same compound?
The TGI was 47.8 µM.

What about the GI50 (RPMI-8226 leukemia) of the same compound?
The GI50 was 18.3 µM.

What about the TGI (RPMI-8226 leukemia) of the same compound?
The TGI was 86.7 µM.

What about the GI50 (A549 NSCLC) of the same compound?
Its GI50 is 1.87 µM.

And the TGI (A549 NSCLC)?
The TGI was 4.27 µM.

What about the GI50 (PC-3 prostate) of the same compound?
Its GI50 is 5.77 µM.

What about the TGI (PC-3 prostate) of the same compound?
Its TGI is 31 µM.

And the GI50 (M14 melanoma)?
The GI50 was 1.9 µM.

And the TGI (M14 melanoma)?
Its TGI is 5.02 µM.

What about the GI50 (HS 578T breast) of the same compound?
Its GI50 is 2.46 µM.

And the TGI (HS 578T breast)?
Its TGI is 9.3 µM.

And the GI50 (OVCAR-5 ovarian)?
Its GI50 is 2.69 µM.

And the TGI (OVCAR-5 ovarian)?
The TGI was 7.17 µM.

And the GI50 (DU-145 prostate)?
Its GI50 is 1.9 µM.

What about the TGI (DU-145 prostate) of the same compound?
Its TGI is 4.32 µM.

What about the GI50 (A498 renal) of the same compound?
The GI50 was 3.95 µM.

What about the TGI (A498 renal) of the same compound?
The TGI was 17.7 µM.

And the GI50 (NCI-H23 lung)?
The GI50 was 2.25 µM.

And the TGI (NCI-H23 lung)?
The TGI was 5.59 µM.

And the GI50 (SNB-75 CNS)?
Its GI50 is 1.72 µM.

What about the TGI (SNB-75 CNS) of the same compound?
Its TGI is 5.26 µM.

And the GI50 (HCT-116 colon)?
Its GI50 is 1.92 µM.

And the TGI (HCT-116 colon)?
The TGI was 4.16 µM.

What about the GI50 (SF-539 CNS) of the same compound?
Its GI50 is 1.78 µM.

What about the TGI (SF-539 CNS) of the same compound?
Its TGI is 3.25 µM.

And the GI50 (NCI-H226 lung)?
Its GI50 is 1.78 µM.

And the TGI (NCI-H226 lung)?
Its TGI is 4.74 µM.

What about the GI50 (HCT-15 colon) of the same compound?
The GI50 was 1.72 µM.

What about the TGI (HCT-15 colon) of the same compound?
Its TGI is 3.31 µM.

And the GI50 (COLO 205 colon)?
Its GI50 is 10.1 µM.

What about the TGI (COLO 205 colon) of the same compound?
The TGI was 24.3 µM.

What about the GI50 (MCF7 breast) of the same compound?
Its GI50 is 2.72 µM.

And the TGI (MCF7 breast)?
Its TGI is 20 µM.

And the GI50 (NCI-H460 lung)?
The GI50 was 2.47 µM.

And the TGI (NCI-H460 lung)?
Its TGI is 9.83 µM.

And the GI50 (SF-268 CNS)?
Its GI50 is 3.16 µM.

And the TGI (SF-268 CNS)?
Its TGI is 12.2 µM.

What about the GI50 (ACHN renal) of the same compound?
Its GI50 is 3.29 µM.

What about the TGI (ACHN renal) of the same compound?
The TGI was 9.98 µM.

And the GI50 (SNB-19 CNS)?
The GI50 was 1.86 µM.

What about the TGI (SNB-19 CNS) of the same compound?
The TGI was 4.08 µM.

And the GI50 (RXF 393 renal)?
The GI50 was 2.37 µM.

And the TGI (RXF 393 renal)?
The TGI was 6.01 µM.

What about the GI50 (U251 CNS) of the same compound?
Its GI50 is 2.13 µM.

And the TGI (U251 CNS)?
Its TGI is 5.52 µM.

What about the GI50 (MDA-MB-435) of the same compound?
The GI50 was 1.95 µM.

And the TGI (MDA-MB-435)?
The TGI was 4.35 µM.

What about the GI50 (TK-10 renal) of the same compound?
Its GI50 is 2.55 µM.

And the TGI (TK-10 renal)?
Its TGI is 6.79 µM.

And the GI50 (HOP-92 NSCLC)?
Its GI50 is 1.84 µM.

What about the TGI (HOP-92 NSCLC) of the same compound?
Its TGI is 3.63 µM.

What about the GI50 (UACC-62 melanoma) of the same compound?
The GI50 was 1.73 µM.

What about the TGI (UACC-62 melanoma) of the same compound?
The TGI was 4.33 µM.

And the GI50 (MALME-3M melanoma)?
Its GI50 is 1.51 µM.

What about the TGI (MALME-3M melanoma) of the same compound?
The TGI was 3.24 µM.

And the GI50 (LOX IMVI melanoma)?
The GI50 was 1.49 µM.

And the TGI (LOX IMVI melanoma)?
Its TGI is 3.21 µM.

What about the GI50 (HOP-62 NSCLC) of the same compound?
The GI50 was 3.41 µM.

And the TGI (HOP-62 NSCLC)?
The TGI was 9.67 µM.

And the GI50 (SK-MEL-5 melanoma)?
The GI50 was 1.19 µM.

And the TGI (SK-MEL-5 melanoma)?
The TGI was 2.78 µM.

What about the GI50 (EKVX NSCLC) of the same compound?
The GI50 was 1.46 µM.

And the TGI (EKVX NSCLC)?
Its TGI is 2.94 µM.

What about the GI50 (786-0 renal) of the same compound?
The GI50 was 2.25 µM.

And the TGI (786-0 renal)?
The TGI was 4.92 µM.

And the GI50 (UACC-257 melanoma)?
The GI50 was 3.1 µM.

What about the TGI (UACC-257 melanoma) of the same compound?
The TGI was 19.9 µM.

What about the GI50 (OVCAR-3 ovarian) of the same compound?
Its GI50 is 2.33 µM.

What about the TGI (OVCAR-3 ovarian) of the same compound?
The TGI was 7.21 µM.

What about the GI50 (HCC-2998 colon) of the same compound?
The GI50 was 13.7 µM.

What about the TGI (HCC-2998 colon) of the same compound?
The TGI was 29.5 µM.

And the GI50 (KM12 colon)?
Its GI50 is 6.87 µM.

And the TGI (KM12 colon)?
The TGI was 33.8 µM.

What about the GI50 (K-562 leukemia) of the same compound?
Its GI50 is 6.02 µM.

And the TGI (K-562 leukemia)?
The TGI was greater than 100 µM.

And the GI50 (NCI-H522 lung)?
The GI50 was 3.62 µM.

And the TGI (NCI-H522 lung)?
Its TGI is 14.5 µM.

And the GI50 (HT29 colon)?
Its GI50 is 3.66 µM.

And the TGI (HT29 colon)?
The TGI was 15.2 µM.

What about the GI50 (SR leukemia) of the same compound?
Its GI50 is 5.35 µM.

What about the TGI (SR leukemia) of the same compound?
The TGI was greater than 100 µM.

And the GI50 (T-47D breast)?
Its GI50 is 6.48 µM.

What about the TGI (T-47D breast) of the same compound?
The TGI was 86.6 µM.

And the GI50 (MDA-MB-231 breast)?
Its GI50 is 1.85 µM.

What about the TGI (MDA-MB-231 breast) of the same compound?
Its TGI is 3.67 µM.

And the GI50 (SF-295 CNS)?
The GI50 was 2.04 µM.

And the TGI (SF-295 CNS)?
Its TGI is 4.1 µM.

What about the GI50 (CCRF-CEM leukemia) of the same compound?
The GI50 was 4.34 µM.

What about the TGI (CCRF-CEM leukemia) of the same compound?
The TGI was 34.6 µM.

What about the GI50 (MDA-MB-468 breast) of the same compound?
Its GI50 is 1.71 µM.

And the TGI (MDA-MB-468 breast)?
The TGI was 3.44 µM.

What about the GI50 (OVCAR-8 ovarian) of the same compound?
The GI50 was 2.01 µM.

And the TGI (OVCAR-8 ovarian)?
Its TGI is 4.48 µM.

What about the GI50 (BT-549 breast) of the same compound?
The GI50 was 1.57 µM.

What about the TGI (BT-549 breast) of the same compound?
The TGI was 3.05 µM.

What about the GI50 (OVCAR-4 ovarian) of the same compound?
The GI50 was 5.93 µM.

What about the TGI (OVCAR-4 ovarian) of the same compound?
Its TGI is 62 µM.

And the GI50 (HL-60(TB) leukemia)?
Its GI50 is 2.22 µM.

What about the TGI (HL-60(TB) leukemia) of the same compound?
The TGI was 6.31 µM.

And the GI50 (SW-620 colon)?
Its GI50 is 2.41 µM.

And the TGI (SW-620 colon)?
Its TGI is 5.55 µM.

What about the GI50 (CAKI-1 renal) of the same compound?
Its GI50 is 2.23 µM.

What about the TGI (CAKI-1 renal) of the same compound?
The TGI was 4.77 µM.

What about the GI50 (UO-31 renal) of the same compound?
Its GI50 is 1.3 µM.

What about the TGI (UO-31 renal) of the same compound?
Its TGI is 2.65 µM.

What about the GI50 (SK-MEL-28 melanoma) of the same compound?
The GI50 was 2.01 µM.

And the TGI (SK-MEL-28 melanoma)?
The TGI was 5.07 µM.

Reference: PubChem BioAssay (NCI)
